Measured values published in patent publication US6730521B1, “Chemical and biochemical assay method and apparatus” (The Technology Partnership PLC, priority 1999, dated 2004).

Target: T1, streptavidin (Streptomyces avidinii, UniProt P22629)
T1 construct: purchased Dynal
Test: FITC-biotin binding to a single streptavidin-coated bead in a scanned droplet
Settings: 5 μl of 48 nM FITC-biotin plus 5 μl buffer with a single 2.8 μm streptavidin bead; equilibrium after 30 minutes
Method: A 5 μl sample of a solution of 48 nM fluorescein isothiocyanate-labelled biotin (FITC-biotin) is added to 5 μl of a solution of buffer containing a single 2.8 μm diameter bead coated with streptavidin (obtained from Dynal). The sample was presented to the instrument for scanning as a 10 μl droplet on the surface of a glass microscope slide. Illumination and light collection was arranged from above the sample. The instrument was set to take fluorescent intensity measurements at 1 μm intervals across the sample in the x-direction with a line-to-line step of 2.2 μm in the y-direction. As the laser spot size was 6 μmm, this allowed for overlap between each scan line. The graphs plot the relative intensity (analogue-to-digital converter or ADC counts) against position (sample number) for several adjacent scan lines. Initially, the FITC-biotin has had insufficient time to diffuse to the streptavidin sites concentrated on the bead. The sample was scanned at intervals over the period of the experiment. It can be readily appreciated that the signal obtained from the illumination will be proportional to the number of molecules of label (FITC-biotin) in the path of the laser at each point. If, as in this case, the label is homogenous throughout the droplet then the signal at each point is proportional to the path length of the laser through the sample. […]

T1 sequence (P22629 25-183): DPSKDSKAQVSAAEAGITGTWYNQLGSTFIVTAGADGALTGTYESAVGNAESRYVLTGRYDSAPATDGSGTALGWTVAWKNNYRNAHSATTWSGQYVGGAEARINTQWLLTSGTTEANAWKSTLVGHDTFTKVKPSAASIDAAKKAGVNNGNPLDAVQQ

Substance: fluorescein isothiocyanate-labelled biotin [FITC-biotin]
- PVS/UVS signal ratio at equilibrium: approx. 6.1
